Data from ChEMBL document CHEMBL4613271, “Application of Atypical Acetyl-lysine Methyl Mimetics in the Development of Selective Inhibitors of the Bromodomain-Containing Protein 7 (BRD7)/Bromodomain-Containing Protein 9 (BRD9) Bromodomains” (J Med Chem, 2020).

Columns and labels:
[1] = target: T1, Bromodomain-containing protein 9 (Homo sapiens, UniProt Q9H8M2); assay: Binding affinity to BRD9 (unknown origin) N-terminal bromodomain by TR-FRET assay
T1 sequence (Q9H8M2 whole entry): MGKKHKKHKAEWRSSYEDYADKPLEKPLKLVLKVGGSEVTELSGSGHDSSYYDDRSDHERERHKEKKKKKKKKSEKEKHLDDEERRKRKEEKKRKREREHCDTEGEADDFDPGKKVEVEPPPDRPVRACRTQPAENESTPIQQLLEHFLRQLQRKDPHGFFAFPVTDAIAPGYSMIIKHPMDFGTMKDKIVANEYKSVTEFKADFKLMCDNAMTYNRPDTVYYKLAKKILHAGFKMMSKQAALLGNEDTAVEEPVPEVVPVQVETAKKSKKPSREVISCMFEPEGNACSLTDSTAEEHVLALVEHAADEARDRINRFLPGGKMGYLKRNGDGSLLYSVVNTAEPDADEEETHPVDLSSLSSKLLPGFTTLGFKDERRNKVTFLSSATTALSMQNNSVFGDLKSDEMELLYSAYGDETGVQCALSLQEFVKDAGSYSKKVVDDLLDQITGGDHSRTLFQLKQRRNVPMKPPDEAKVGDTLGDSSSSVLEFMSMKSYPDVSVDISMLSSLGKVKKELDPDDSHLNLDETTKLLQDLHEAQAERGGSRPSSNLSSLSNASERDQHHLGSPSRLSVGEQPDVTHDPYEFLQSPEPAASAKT

[2] = target: T2, Bromodomain-containing protein 4 (Homo sapiens, UniProt O60885); assay: Binding affinity to BRD4 (1) (unknown origin) N-terminal bromodomain by TR-FRET assay
[3] = Chromatographic hydrophobicity index, logD of the compound at pH 7.4 by HPLC analysis; format: physicochemical; conditions: buffer
[4] = organism: Homo sapiens; assay: Selectivity index, ratio of IC50 for binding affinity to BRD4 (1) (unknown origin) N-terminal bromodomain to IC50 for binding affinity to BRD9 (unknown origin) N-terminal bromodomain
[5] = target: T3, Peregrin (Homo sapiens, UniProt P55201); assay: Binding affinity to human partial length BRPF1 (E627 to G740 residues) expressed in bacterial expression system by BROMOscan assay
T3 sequence (P55201 whole entry): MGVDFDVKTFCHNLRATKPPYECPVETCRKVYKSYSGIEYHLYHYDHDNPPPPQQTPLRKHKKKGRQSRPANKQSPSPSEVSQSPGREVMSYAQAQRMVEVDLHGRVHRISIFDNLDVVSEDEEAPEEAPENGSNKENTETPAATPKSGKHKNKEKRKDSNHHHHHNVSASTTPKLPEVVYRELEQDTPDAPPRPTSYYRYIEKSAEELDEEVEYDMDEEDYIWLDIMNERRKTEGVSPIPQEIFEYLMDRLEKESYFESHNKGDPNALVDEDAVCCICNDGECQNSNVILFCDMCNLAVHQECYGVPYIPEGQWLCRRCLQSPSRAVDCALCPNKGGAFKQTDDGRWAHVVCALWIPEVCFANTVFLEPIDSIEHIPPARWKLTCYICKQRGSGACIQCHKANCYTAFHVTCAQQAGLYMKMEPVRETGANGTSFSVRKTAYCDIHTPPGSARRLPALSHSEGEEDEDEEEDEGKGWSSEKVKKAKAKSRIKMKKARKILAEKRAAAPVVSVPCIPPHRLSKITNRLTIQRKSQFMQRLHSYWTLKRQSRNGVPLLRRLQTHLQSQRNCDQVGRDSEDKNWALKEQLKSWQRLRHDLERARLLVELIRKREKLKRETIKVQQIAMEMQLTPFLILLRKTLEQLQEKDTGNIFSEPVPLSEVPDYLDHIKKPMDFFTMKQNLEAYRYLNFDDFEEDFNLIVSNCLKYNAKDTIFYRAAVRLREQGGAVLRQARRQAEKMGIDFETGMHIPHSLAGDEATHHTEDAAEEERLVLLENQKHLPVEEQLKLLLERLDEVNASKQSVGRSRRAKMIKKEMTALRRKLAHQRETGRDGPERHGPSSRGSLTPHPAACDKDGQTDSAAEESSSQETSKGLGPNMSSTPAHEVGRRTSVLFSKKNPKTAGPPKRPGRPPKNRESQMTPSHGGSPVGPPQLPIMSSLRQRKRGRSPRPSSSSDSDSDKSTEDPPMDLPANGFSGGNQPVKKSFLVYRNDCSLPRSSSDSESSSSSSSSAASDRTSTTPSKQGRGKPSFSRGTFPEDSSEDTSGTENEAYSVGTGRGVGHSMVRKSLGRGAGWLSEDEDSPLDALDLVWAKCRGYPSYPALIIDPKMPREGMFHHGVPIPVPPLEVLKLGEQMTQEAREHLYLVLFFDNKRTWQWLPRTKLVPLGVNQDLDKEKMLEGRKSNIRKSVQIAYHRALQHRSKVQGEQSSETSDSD

[6] = target: T2, Bromodomain-containing protein 4; assay: Binding affinity to human partial length BRD4 (1) (N44 to E168 residues) expressed in bacterial expression system by BROMOscan assay
[7] = target: T1, Bromodomain-containing protein 9
Description: Binding affinity to human partial length BRD9 (R130 to V259 residues) expressed in bacterial expression system by BROMOscan assay

[8] = target: T4, Bromodomain-containing protein 9 (Homo sapiens) (UniProt Q9H8M2); assay: Inhibition of human partial length BRD9 (R130 to V259 residues) expressed in bacterial expression system at 10 uM by BROMOscan assay relative to control
T4 sequence (whole entry): T1 sequence (Q9H8M2 whole entry)

[9] = target: T5, Bromodomain-containing protein 7 (Homo sapiens, UniProt Q9NPI1); assay: Binding affinity to BRD7 (unknown origin)
T5 sequence (Q9NPI1 whole entry): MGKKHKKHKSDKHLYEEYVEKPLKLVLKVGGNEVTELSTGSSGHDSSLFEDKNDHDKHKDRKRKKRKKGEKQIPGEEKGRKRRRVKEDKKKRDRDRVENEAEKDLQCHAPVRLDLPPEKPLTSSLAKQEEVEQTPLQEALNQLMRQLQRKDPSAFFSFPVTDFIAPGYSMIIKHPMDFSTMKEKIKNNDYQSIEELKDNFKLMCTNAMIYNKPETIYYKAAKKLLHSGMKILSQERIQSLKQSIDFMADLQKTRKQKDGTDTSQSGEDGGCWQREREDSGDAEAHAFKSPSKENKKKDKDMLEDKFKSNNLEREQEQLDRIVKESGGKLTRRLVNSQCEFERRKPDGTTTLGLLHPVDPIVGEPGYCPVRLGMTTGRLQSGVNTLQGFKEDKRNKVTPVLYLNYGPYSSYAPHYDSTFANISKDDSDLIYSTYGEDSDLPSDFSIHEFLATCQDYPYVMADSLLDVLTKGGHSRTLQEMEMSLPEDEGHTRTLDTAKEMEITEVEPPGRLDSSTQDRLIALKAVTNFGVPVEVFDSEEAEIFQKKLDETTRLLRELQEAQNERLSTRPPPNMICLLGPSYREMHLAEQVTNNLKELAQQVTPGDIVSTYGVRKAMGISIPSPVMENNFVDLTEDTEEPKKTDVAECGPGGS

[10] = Solubility of compound by CLND method; format: physicochemical
[11] = Permeability by PAMPA; format: ADME; conditions: read-out: permeability

IC50 [1] [µM] | IC50 [2] [µM] | chromatographic logD [3] | fold selectivity [4] | Ki [5] [µM] | Ki [6] [µM] | Ki [7] [µM] | SMILES | other results
– | – | 3 | – | > 10 | > 10 | 0.251 | C/C=C\Cc1c(NCc2ccccc2N2CCN(C)CC2)cnn(C)c1=O | –
– | – | – | – | – | – | 0.01 | CCCCn1cc(-c2cccc(C(F)(F)F)c2)c2sc(C(=N)NC3CCS(=O)(=O)CC3)cc2c1=O | –
– | – | 3.5 | – | > 10 | > 10 | > 10 | CC/C=C/c1c(NCc2ccccc2N2CCN(C)CC2)cnn(C)c1=O | –
– | – | 2.3 | – | 6.31 | 7.94 | 0.0794 | CCc1c(NCc2ccccc2N2CCN(C)CC2)cnn(C)c1=O | –
0.0631 | 15.8 | 1.2 | 250 | – | – | – | Cc1c(NCc2ccccc2N2CCN(CCCN)CC2)cnn(C)c1=O | –
– | – | 3.1 | – | > 10 | 3.98 | 0.0398 | C/C=C/Cc1c(NCc2ccccc2N2CCN(C)CC2)cnn(C)c1=O | –
– | – | 2.5 | – | > 10 | > 10 | 0.1 | C=CCc1c(NCc2ccccc2N2CCN(C)CC2)cnn(C)c1=O | –
0.1 | 20 | 3.2 | 200 | – | – | – | Cc1c(NCc2ccccc2N2CCOCC2)cnn(C)c1=O | –
– | – | 3.2 | – | > 10 | > 10 | 0.398 | C=CCCc1c(NCc2ccccc2N2CCN(C)CC2)cnn(C)c1=O | –
– | – | 4.2 | – | > 10 | 1.58 | 0.158 | CCCCCc1c(NCc2ccccc2N2CCN(C)CC2)cnn(C)c1=O | –
– | > 50.1 | – | – | – | – | 0.0794 | CCCCc1c(Nc2cccc3c2CCN(C)C3)cnn(C)c1=O | –

More lines, now with the values behind:

SMILES | IC50 [1] [µM] | IC50 [2] [µM] | chromatographic logD [3] | fold selectivity [4] | Ki [5] [µM] | Ki [6] [µM] | Ki [7] [µM] | other results
Cc1ccccc1CNc1cnn(C)c(=O)c1C | 0.398 | 25.1 | 3.6 | 63 | – | – | – | –
CCOC(=O)Nc1cc(-c2ccc(C)c(NS(C)(=O)=O)c2)nn2c(C)nnc12 | – | – | – | – | – | – | – | inhibition [8]: 100%
Cc1c(NCc2ccccc2)cnn(C)c1=O | 1.26 | 25.1 | 2.9 | 20 | – | – | – | –
Cc1c(Nc2cccc3c2CCN(C)C3)cnn(C)c1=O | – | 39.8 | – | – | – | – | 0.158 | –
C=C[C@@H](C)c1c(NCc2ccccc2N2CCN(C)CC2)cnn(C)c1=O | – | – | 3.1 | – | > 10 | > 10 | 0.251 | –
CNc1cnn(C)c(=O)c1Cl | 25.1 | 126 | – | – | – | – | – | –
C=C[C@H](C)c1c(NCc2ccccc2N2CCN(C)CC2)cnn(C)c1=O | – | – | 3.1 | – | > 10 | > 10 | 0.316 | –
CCCCc1nnc2c(NC(=O)OCC)cc(-c3ccc(C)c(NS(C)(=O)=O)c3)nn12 | – | – | – | – | – | – | – | inhibition [8]: > 95%
Cc1c(NCc2ccccc2-c2ccccc2)cnn(C)c1=O | 0.1 | 12.6 | 4.8 | 125 | – | – | – | –
CC(C)c1c(NCc2ccccc2N2CCN(C)CC2)cnn(C)c1=O | – | – | 3.1 | – | 7.94 | > 10 | 0.316 | –
CCCc1c(NCc2ccccc2N2CCN(C)CC2)cnn(C)c1=O | – | – | 2.8 | – | > 10 | > 10 | 0.126 | –
Cc1c(NCc2ccccc2N2CCCOCC2)cnn(C)c1=O | 0.1 | 12.6 | 3.5 | 125 | – | – | – | –
COc1cc(-c2cn(C)c(=O)c3cnccc23)c(OC)cc1CN(C)CC(=O)NCCOCCOCCNc1cccc2c1C(=O)N(C1CCC(=O)NC1=O)C2=O (stereo not given) | – | – | – | – | – | – | – | IC50 [9]: 0.1 µM
CN1CCN(c2ccccc2CNc2cnn(C)c(=O)c2)CC1 | – | – | 1.1 | – | – | – | – | solubility kinetic [10]: ≥ 0.15 mg/mL; Papp [11]: 140 nm/s; IC50 [6]: > 50.1 µM; IC50 [7]: > 50.1 µM
Cc1ccc(CNc2cnn(C)c(=O)c2Cl)cc1 | 0.794 | 12.6 | 4 | 16 | – | – | – | –
Cc1cccc(CNc2cnn(C)c(=O)c2Cl)c1 | 2.51 | 20 | 4 | 8 | – | – | – | –
Cc1c(NCc2ccccc2N2CCNCC2)cnn(C)c1=O | 0.2 | > 50.1 | 0.7 | > 250 | – | – | – | –
